Reference: ChEMBL document CHEMBL5120862, “Novel non-covalent LSD1 inhibitors endowed with anticancer effects in leukemia and solid tumor cellular models” (Eur J Med Chem, 2022)
Activity calls are given as the source filed them. The rule behind the calls is not given here.

What was measured:
[1] = tested on: MDA-MB-231; assay: Antiproliferative activity against human MDA-MB-231 cells assessed as inhibition of cell growth measured after 72 hrs by MTT assay; assay type: functional, cell-based; conditions: MDA-MB-231, 72 h
[2] = tested on: SJRH30; assay: Antiproliferative activity against human Rh30 cells assessed as inhibition of cell growth incubated for 24 hrs; assay type: functional, cell-based; conditions: SJRH30, 24 h
[3] = tested on: THP-1; assay: Antiproliferative activity against human THP-1 cells assessed as inhibition of cell growth incubated for 24 hrs by CellTiter-Glo luminescent cell viability assay; assay type: functional, cell-based; conditions: THP-1, 24 h
[4] = target: T1, MAO-A (amine oxidase [flavin-containing] A) (Homo sapiens, UniProt P21397); assay: Inhibition of human MAO-A using p-tyramine as substrate at 100 uM by fluorimetric analysis relative to control; conditions: human MAO-A enzyme, probe p-tyramine
T1 sequence (P21397 whole entry): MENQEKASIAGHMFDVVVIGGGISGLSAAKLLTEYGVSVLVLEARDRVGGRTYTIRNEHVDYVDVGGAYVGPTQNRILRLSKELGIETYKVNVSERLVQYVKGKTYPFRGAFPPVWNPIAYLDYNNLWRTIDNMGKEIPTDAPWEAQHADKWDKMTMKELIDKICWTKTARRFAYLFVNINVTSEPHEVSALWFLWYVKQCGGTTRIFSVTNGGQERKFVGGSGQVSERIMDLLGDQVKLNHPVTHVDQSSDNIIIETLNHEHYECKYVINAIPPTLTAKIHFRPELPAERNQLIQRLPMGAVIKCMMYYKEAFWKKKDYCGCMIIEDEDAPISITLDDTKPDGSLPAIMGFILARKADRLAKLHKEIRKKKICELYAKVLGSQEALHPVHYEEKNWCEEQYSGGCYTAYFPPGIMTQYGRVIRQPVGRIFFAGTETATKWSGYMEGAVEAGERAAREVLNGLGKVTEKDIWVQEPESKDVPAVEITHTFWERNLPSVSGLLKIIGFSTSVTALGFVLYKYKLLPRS

[5] = tested on: MV4-11; assay: Induction of apoptosis in human MV4-11 cells assessed as accumulation of cells at sub-G1 phase incubated for 24 hrs; assay type: functional, cell-based; conditions: dose 0.2-25 µM, DDE = dose-dependent effect
[6] = tested on: THP-1; assay: Antiproliferative activity against human THP-1 cells assessed as inhibition of cell growth incubated for 72 hrs by CellTiter-Glo luminescent cell viability assay; assay type: functional, cell-based; conditions: THP-1, 72 h
[7] = target: T2, MAO-B (amine oxidase [flavin-containing] B) (Homo sapiens, UniProt P27338); assay: Inhibition of human MAO-B using p-tyramine as substrate at 100 uM by fluorimetric analysis relative to control; conditions: human MAO-B enzyme, probe p-tyramine
T2 sequence (P27338 whole entry): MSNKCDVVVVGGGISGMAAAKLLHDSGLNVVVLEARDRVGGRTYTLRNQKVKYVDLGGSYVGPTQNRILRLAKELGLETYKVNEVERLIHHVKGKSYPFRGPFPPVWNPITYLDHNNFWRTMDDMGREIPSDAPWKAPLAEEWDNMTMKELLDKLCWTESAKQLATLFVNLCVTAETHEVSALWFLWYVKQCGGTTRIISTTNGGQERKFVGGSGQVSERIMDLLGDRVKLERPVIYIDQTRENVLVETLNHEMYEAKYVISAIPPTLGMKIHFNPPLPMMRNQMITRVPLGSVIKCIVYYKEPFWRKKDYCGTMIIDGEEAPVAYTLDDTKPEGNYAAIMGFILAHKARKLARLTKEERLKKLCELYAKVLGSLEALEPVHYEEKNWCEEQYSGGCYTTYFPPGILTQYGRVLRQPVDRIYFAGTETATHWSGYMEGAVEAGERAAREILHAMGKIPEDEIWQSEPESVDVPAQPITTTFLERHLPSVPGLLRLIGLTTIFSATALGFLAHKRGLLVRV

[8] = tested on: SJRH30; assay: Induction of apoptosis in human Rh30 cells assessed as increase in caspase 3/7 level at 2 uM incubated for 24 hrs; assay type: functional, cell-based
[9] = target: Lysine-specific histone demethylase 1A (Homo sapiens) (UniProt O60341); assay: Inhibition of LSD1 in human RD cells assessed as increase in H3K4me2 level at 1 uM incubated for 48 hrs by Western blot analysis; assay type: cell-based

IC50 [1]: 400 nM | IC50 [3]: 270 nM | inhibition at 100 µM [4]: 0.8% | IC50 [6]: 170 nM | inhibition at 100 µM [7]: 0.5% | inhibition [9]: Active
SMILES: COc1cc2c(NC3CCN(Cc4ccccc4)CC3)nc(NCCCN(C)C)nc2cc1OCc1ccccc1
IC50 [2]: 1240 nM | Activity [5]: Dde | Activity [8]: Active
